Reference: patent US7429396B2, “Antifungal composition, its fungicidal effect on pathogenic dermatophytes, and process for inhibiting growth of fungi” (Bio-Botanica, Inc., priority 2003, dated 2008)
“And” between values parts separate entries of the source, which are not always exact repeats. Equal values may be shown once.

What was measured:
S. aureus ATCC 29213 = experiment: Agar Dilution susceptibility method (Example 5); type: cell-based, Staphylococcus aureus
Method: (§1) The Agar Dilution susceptibility method was used to test the effectiveness of the antimicrobial composition of Example 1. The organisms used were S. aureus ATCC 29213, E. coli ATCC 25922, S. typhimurium ATCC 14028, K. pneumoniae ATCC 10031, P. aeruginosa ATCC 27853, C. albicans ATCC 10231, and M. smegmatis ATCC 14468. The organisms were maintained on Tryptic Soy Agar (TSA) slants. For each week, the organisms were cultured in 10 ml of Tryptic Soy Broth (TSB). After incubation at 37° C. for 17 hours (48 hours for M. smegmatis), the organism suspensions were diluted with 10 ml of sterile saline as shown in Table 4. The mold Aspergillus niger was sustained on a Sabouraud Dextrose Agar slant. The sample was then cultured in 10 ml of Tryptic Soy Broth and incubated for 7 days at 22° C. The mold was then diluted in 0.1% Tween 80 in saline. The diluted bacteria and yeast organisms were then inoculated onto the prepared sample plates with a 1 μl loop. The mold Aspergillus niger was added to prepared sample tubes with a 100 μl pipette.
(§2) Phenyloxyethanol (PE), phenylethyl alcohol (PEA) and methyl/propylparabens (MP) in a ratio of 5:4 were initially screened at their commonly recommended effective concentrations of 0.3% v/v (3 μl/ml); 1% v/v (10 μl/ml); and 0.18% w/v (1 mg methyl and 0.8 mg propylparaben/ml), respectively. The antimicrobial agent was used at an initial concentration of 0.15% v/v (1.5 μl/ml).
(§3) The sample plates for the bacteria and yeast were prepared as follows: • Prepare 10 ml tubes of TSA and allow to cool to 50° C., • Add the calculated amount of the preservative or antimicrobial agent to 100 μl dimethylsulfoxide (DMSO) to achieve the specified concentration per ml TSA when 100 μl of the DMSO solution are added to a test tube containing 10 ml of TSA, • Vortex to homogenize the mixture in TSA, • Pour TSA and the preservative or antimicrobial agent into a properly labeled Petri dish, • Allow to cool overnight at room temperature. […]
(§4) The results for the bacteria and yeast were scored in relation to the growth present on the positive control plate. […]

E. coli ATCC 25922 = experiment: Agar Dilution susceptibility method (Example 5); type: cell-based, Escherichia coli
Method: as §1, §2
(§5) The sample plates for the bacteria and yeast were prepared as follows: • Prepare 10 ml tubes of TSA and allow to cool to 50° C., • Add the calculated amount of the preservative or antimicrobial agent to 100 μl dimethylsulfoxide (DMSO) to achieve the specified concentration per ml TSA when 100 μl of the DMSO solution are added to a test tube containing 10 ml of TSA, • Vortex to homogenize the mixture in TSA, • Pour TSA and the preservative or antimicrobial agent into a properly labeled Petri dish, • Allow to cool overnight at room temperature.
(§6) The prepared sample plates were divided into seven sections and the plates labeled according to the preservative or antimicrobial agent. Each section was labeled according to the microorganism to be applied to each section. The diluted organism suspensions were inoculated onto their appropriate section with a 1 μl loop, streaking radially from the center to the outer edge of the plate. A positive control plate was prepared without a preservative or antimicrobial agent of Example 1. The plates were then incubated at 37° C. for 48 hours, recording the results at 24 and 48 hours.
(§7) The results for the bacteria and yeast were scored in relation to the growth present on the positive control plate. Growth (G) was noted when there was full growth visible and the organism was not affected. […]

[1] = tested on: S. typhimurium ATCC 14028; experiment: Agar Dilution susceptibility method (Example 5); type: cell-based, Salmonella typhimurium
Method: as §1, §2, §5, §6
Growth (G) was noted when there was full growth visible and the organism was not affected. […]
In this example and the tables, the amount of the antimicrobial agent is expressed in terms of the volume of antimicrobial sample. […]

K. pneumoniae ATCC 10031 = experiment: Agar Dilution susceptibility method (Example 5); type: cell-based, Klebsiella pneumoniae
Method: as §1, §2, §5, §6, §7
(§8) In this example and the tables, the amount of the antimicrobial agent is expressed in terms of the volume of antimicrobial sample. The concentration of the antimicrobial agent of 1 μl/ml corresponds to 1 mg (milligram)/ml of the antimicrobial agent. The MIC obtained was confirmed by three consecutive results. DMSO was used to solubilize the test samples and help to diffuse the lipophilic ingredients into the agar. DMSO was used at a concentration not exceeding 1%.

M. smegmatis ATCC 14468 = experiment: Agar Dilution susceptibility method (Example 5); type: cell-based, Mycobacterium smegmatis
Method: as §1, §2, §5, §6, §7

C. albicans ATCC 10231 = experiment: Agar Dilution susceptibility method (Example 5); type: cell-based, Candida albicans
Method: as §1, §2, §5, §6, §7

A. niger ATCC 16404 = experiment: Broth tube susceptibility test of the mold (Example 5); type: cell-based, Aspergillus niger
Method: as §1
The sample for the mold Aspergillus niger was prepared as follows: • Prepare 10 ml tubes of Tryptic Soy Broth (TSB), • Add the calculated amount of the sample to 100 μl dimethylsulfoxide (DMSO) to achieve the specified concentration per ml TSB. Then 100 μl of the DMSO is added to a test tube containing 10 ml of TSB, • Vortex to homogenize the mixture in TSB, • Add 100 μl of Aspergillus niger suspension to a tube of TSB not inoculated with any sample as a positive control.
The prepared sample tubes were inoculated with 100 μl of the mold Aspergillus niger suspension to produce a final mold spore concentration in each sample tube of 1×10^4 to 1×10^5 spores/ml. The prepared sample tubes of TSB were incubated at 37° C. for 5 days with the results being recorded at 3 and 5 days.
The results for Aspergillus niger were scored in relation to the growth present in the positive control tube. The growth (G) was noted when there was full growth visible as determined by the tube appearing cloudy to the same extent as the positive control tube. Partial activity (P) was recorded when the sample tube of TSB was less turbid than the control tube. No growth (I) was recorded when there was total inhibition and broth in the tube appeared clear.
as §8

[2] = tested on: all microorganisms tested; experiment: Agar/broth dilution, inhibition of all microorganisms tested (Example 5); type: cell-based
Method: as §1, with “The sample was then cultured in 10 ml of Tryptic Soy Broth and incubated for 7 days at 22° C. The mold was then diluted in 0.1% Tween 80 in saline. The diluted bacteria and yeast organisms were then inoculated onto the prepared sample plates with a 1 μl loop. The mold Aspergillus niger was added to prepared sample tubes with a 100 μl pipette.” left out
as §3, §4

Minimum Inhibitory Concentration (MIC) (sample/ml of agar or broth) (S. aureus ATCC 29213): 10.0 μl/ml
Minimum Inhibitory Concentration (MIC) (sample/ml of agar or broth) (E. coli ATCC 25922): 5.0 μl/ml
Minimum Inhibitory Concentration (MIC) (sample/ml of agar or broth) [1]: 5.0 μl/ml
Minimum Inhibitory Concentration (MIC) (sample/ml of agar or broth) (K. pneumoniae ATCC 10031): 5.0 μl/ml
Minimum Inhibitory Concentration (MIC) (sample/ml of agar or broth) (M. smegmatis ATCC 14468): 2.5 μl/ml
Minimum Inhibitory Concentration (MIC) (sample/ml of agar or broth) (C. albicans ATCC 10231): 2.5 μl/ml and 3.0 μl/ml
Minimum Inhibitory Concentration (MIC) (sample/ml of agar or broth) (A. niger ATCC 16404): 2.5 μl/ml
MIC capable of inhibiting all the tested organisms [2]: 6.0 μl/ml
SMILES: OCCc1ccccc1 [Phenylethyl Alcohol]
effect on S. aureus (S. aureus ATCC 29213; 0.3 wt %): no effect
growth score (S. aureus ATCC 29213; 6.0 μl/ml): I
growth score (E. coli ATCC 25922; 3.0 μl/ml): I
growth score (E. coli ATCC 25922; 5.0 μl/ml): I
growth score (E. coli ATCC 25922; 6.0 μl/ml): I
growth score ([1]; 3.0 μl/ml): I
growth score ([1]; 5.0 μl/ml): I
growth score ([1]; 6.0 μl/ml): I
growth score (K. pneumoniae ATCC 10031; 1.5 μl/ml): I
growth score (K. pneumoniae ATCC 10031; 3.0 μl/ml): I
growth score (K. pneumoniae ATCC 10031; 5.0 μl/ml): I
growth score (K. pneumoniae ATCC 10031; 6.0 μl/ml): I
growth score (M. smegmatis ATCC 14468; 3.0 μl/ml): I
growth score (M. smegmatis ATCC 14468; 5.0 μl/ml): I
growth score (M. smegmatis ATCC 14468; 6.0 μl/ml): I
growth score (C. albicans ATCC 10231; 3.0 μl/ml): I
growth score (C. albicans ATCC 10231; 5.0 μl/ml): I
growth score (C. albicans ATCC 10231; 6.0 μl/ml): I
growth score (A. niger ATCC 16404; 3.0 μl/ml): I
growth score (A. niger ATCC 16404; 5.0 μl/ml): I
growth score (A. niger ATCC 16404; 6.0 μl/ml): I
